Assay results from patent publication US20210355532A1, “METHODS AND REAGENTS FOR DETECTING AND ASSESSING GENOTOXICITY” (TwinStrand Biosciences, Inc., priority 2018, published 2021).
Entries after “also recorded” stand apart in the source; their conditions may differ.

Experiments:
Format in all cases: in vivo, mouse
[1] = tested on: BigBlue® transgenic C57BL/6 male mice; experiment: Duplex Sequencing mutant frequency and spectrum in BigBlue transgenic mice (cII transgene and endogenous genes)
Method: Tissues were collected and frozen on study day 31. Liver and bone marrow were analyzed for mutants. DNA was isolated and mutants analyzed for cII mutant plaques using RecoverEase and Transpack methods described by Agilent Technologies. Duplex Sequencing was used to sequence cII and other endogenous genes for mutations in liver and bone marrow.
Genes evaluated and criteria used to select genes are as follows: (1) Polr1c (RNA polymerase), which is ubiquitously transcribed in all tissue types; (2) Rho (Rhodopsin), which is not expressed in any tissue besides retina; (3) Hp (Haptoglobin), which is highly expressed in liver, but almost nowhere else; (4) Ctnnb1 (Beta-catenin), which is most commonly mutated gene in human hepatocellular carcinoma; and (5) CII: 360 bp transgenic reporter gene present in ˜80 copies in BigBlue® mice.
FIGS. 3A-3D are box plot graphs showing mutant frequencies calculated for Duplex Sequencing (FIGS. 3A and 3B) and the BigBlue® cII plaque assay (FIGS. 3C and 3D) in liver and bone marrow following mutagen treatment as described above. MF for Duplex Sequencing was based on total mutants per duplex base-pair sequenced (n=5 mice/group). MF for BigBlue® was calculated as number of mutant plaques relative to number of […] (n=6 mice/group).

[2] = tested on: human HRAS transgene codon 61; experiment: Duplex Sequencing detection of clonal oncogenic mutations in human HRAS transgene of Tg.rasH2 mice; details: day 29
From the text: (§1) In this example, the impact of a urethane is examined in different mouse tissue types (lung, spleen, blood) in an FDA-approved cancer-predisposed mouse model: Tg.rasH2 (Saitoh et al. Oncogene 1990. PMID 2202951). This mouse contains ˜3 tandem copies of human Hras with an activating enhancer mutation to boost expression on one hemizygous allele. These mice are predisposed to splenic angiosarcomas and lung adenocarcinomas, and are routinely used for 6 month carcinogenicity studies to substitute for 2 year native animal studies. Tumors found in the mice have usually acquired activating mutations in one copy of the human Hras protooncogene. In this addition to the 4 native mouse genes (Rho, Hp, Ctnnb1, Polr1c), the native mouse Hras and human Hras transgene are also analyzed in this example.
(§2) In this example, Tg.rasH2 mice (n=5/group) were dosed with vehicle or a carcinogenic dose of urethane (day 1,3,5) and sacrificed on day 29 for mutation detection by Duplex Sequencing in target tissues (lung, spleen) and whole blood. The endogenous genes (Rho, Hp, Ctnnb1, Polr1c) and the native mouse and human Hras (trans)genes were also sequenced.
FIG. 15A is a graph illustrating SNVs plotted over the genomic intervals for the exons captured from the Ras family of genes, including the human transgenic loci, in the Tg-rasH2 mouse model. Singlets are mutations found in a single molecule. Multiplets are an identical mutation identified within multiple molecules within the same sampler and may represent a clonal expansion event. The height of each point corresponds to the variant allele frequency (VAF) of each SNV, with the with the size of the point corresponds to the for multiplet observations only. The location and relative frequency of Ras family human cancer mutational hotspots in COSMIC are indicated below each gene. FIG. 15B is a graph illustrating single nucleotide variants (SNVs) aligning to exon 3 of the human HRAS transgene. Highlighted is the center residue in codon number 61 in exon 3 of human HRAS, the most common HRAS cancer-driving hotspot.

Tg.rasH2 mice = experiment: Duplex Sequencing mutant frequency and spectrum in Tg.rasH2 mice dosed with urethane; details: for Mutation Frequency: urethane day 1,3,5, sacrifice day 29, Duplex Sequencing
From the text: as §1, §2
FIG. 8 is a bar graph showing mutant frequency (MF) of lung, spleen and blood samples for control and experimental animals subjected to urethane. In this analysis, every unique variant detected was counted as one mutation, which were summed per sample. This was divided by the total number of Duplex Bases sequenced and across the entire capture region. The number of events is noted above each sample. In total, across all 30 samples, 3,966,947,832 Duplex Sequenced base pairs were generated.
Referring to FIG. 9 and Table 1 together, differences between vehicle control (VC) and treatment groups were highly significant. A Welch's t-test (for unequal variances) was used to determine the significance of the mutagen treated tissue's mutant frequency over that of the control for that tissue. The slightly wider confidence intervals with blood reflects a lower average depth of sequencing in the blood VC samples in this particular example. It is anticipated that this can be corrected using the methods described herein.

CCN(N=O)C(N)=O [ENU, N-ethyl-N-nitrosourea]
MF in 4 endogenous genes (Polr1c, rhodopsin, haptoglobin, beta-catenin) ([1]; BigBlue mice, liver and bone marrow): increased | Mutation spectrum, distinguishing mutation types ([1]; aggregated across all genes, all tissues, unsupervised cluster analysis): preponderance of T→C, T→A, and C→T mutations | Mutation load relative to controls ([1]; bone marrow and liver, cII transgene, BigBlue mice, study day 31): significantly increased relative to controls | Trinucleotide context hotspots (most vulnerable contexts) ([1]; trinucleotide spectra, BigBlue mice): GTS and GTG and GTC

CCOC(N)=O [Urethane, urethane]
Variant allele frequencies of HRAS codon 61 mutation ([2]; four out of five treated lung samples): 0.1%-1.8% | Fraction of treated samples with T>A transversions at human oncogenic Hras codon 61 hotspot ([2]; lung samples): ⅘ | Fraction of treated samples with T>A transversions at human oncogenic Hras codon 61 hotspot ([2]; splenic samples): ⅕ | Fold Increase of mutation frequency over vehicle control (Tg.rasH2 mice; Blood): 2.2x | Mutation Frequency (Tg.rasH2 mice; Blood, Tg.rasH2 mice): 2.39e−07 | Fold Increase of mutation frequency over vehicle control (Tg.rasH2 mice; Lung): 7.5x | Mutation Frequency (Tg.rasH2 mice; Lung, Tg.rasH2 mice): 5.04e−07 | Fold Increase of mutation frequency over vehicle control (Tg.rasH2 mice; Spleen): 3.3x | Mutation Frequency (Tg.rasH2 mice; Spleen, Tg.rasH2 mice): 2.73e−07 | Trinucleotide (triplet) mutation spectrum, predominant mutation (Tg.rasH2 mice; lung, spleen, blood, Tg.rasH2 mice): T:A→A:T within the motif “NTG” is shown as the most common mutation; also recorded: strong propensity for T→A and T→C mutations within the context of “NTG”
